The source of these data is US20050004024A1, “Methods of treating Pin1 associated disorders by covalent modification of active site residues” (PINTEX PHARMACEUTICALS, INC., priority 2003, published 2005).

In the assay the target is Pin1 (Homo sapiens, UniProt Q13526). Description: Time dependent inactivation of Pin1 (pre-incubation, then protease coupled Pin1 assay). The following applies: 7.4 uM Pin1 incubated with 200 uM compound, 1% DMF, 35 mM hepes pH 7.8; aliquots diluted to 1 nM Pin1; FIG. 2. It counts as biochemical. The procedure: Pin1 was incubated with Fred-A to determine the effect on peptidyl prolyl isomerase activity.
A solution containing 7.4 uM Pin1, 100 uM juglone 1% DMF, in 35 mM hepes pH 7.8 was incubated. At various time points, aliquots were removed and diluted into assay buffer containing 1 nM Pin1, 13.5 nM juglone, 0.1 mg/ml BSA, 0.2 mM DTT, and 35 mM Hepes pH 7.8. Pin1 activity was measured by using a protease coupled Pin1 assay.
Aliquots of the incubation mixtures were diluted 7,200 fold into assay buffer (0.1 mg/mL BSA, 0.2 mM DTT and 35 mM Hepes pH 7.8) to a final Pin1 concentration of 1 nM. 20 uL of a 0.4 mg/mL trypsin solution in 35 mM Hepes pH 7.8 was added to 1.2 mL Pin1 solution. The enzymatic reaction was initiated by the addition of 3 uL the substrate solution (15/mg/mL of Ac-Ala-Ala-(PO3)Ser-Pro-Arg-pNA dissolved in a solution of 0.5 M LiCl in trifluroethanol). The reaction progress was monitored at 390 nm for 8 minutes at 4° C.
A solution containing 7.4 uM Pin1, 200 uM juglone 1% DMF, in 35 mM hepes pH 7.8 was incubated. At various time points, aliquots were removed and diluted into assay buffer containing 1 nM Pin1, 27 nM juglone, 0.1 mg/ml BSA, 0.2 mM DTT, and 35 mM Hepes pH 7.8. Pin1 activity was measured as described above for juglone.

Chain of Pin1 (Q13526 whole entry): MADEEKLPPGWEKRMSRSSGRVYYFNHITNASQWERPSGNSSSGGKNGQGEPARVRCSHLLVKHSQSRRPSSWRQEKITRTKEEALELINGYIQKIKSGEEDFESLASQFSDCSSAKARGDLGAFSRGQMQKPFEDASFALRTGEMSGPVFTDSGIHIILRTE

On to Fredericamycin A [Fred-A], for which the “effect on peptidyl prolyl isomerase activity / covalent modification of Pin1” value is recorded as “modified in a manner consistent with covalent modification of the active site”.
